From patent US20150313913A1, “POSITIVE ALLOSTERIC MODULATORS OF THE GABA-A RECEPTOR IN THE TREATMENT OF AUTISM” (UNIVERSITY OF WASHINGTON THROUGH ITS CENTER FOR …, priority 2013, published 2015)
Entries after “also recorded” stand apart in the source; their conditions may differ.

Experiments:
BTBR mice = assay: Open-field reciprocal social interaction test; type: in vivo; conditions: for nose-to-nose interaction with stranger mouse / total (reciprocal) social interaction with stranger mouse: low dose (0.05 mg/kg), Pre/CLZ/Post at one-week intervals, 0.05 mg/kg
Procedure: (§1) A test mouse and an age- and gender-matched stimulus mouse with a mixed C57BL/6J×129 genetic background were introduced in an open field arena (50×50 cm). Mice were socially naïve with each other. The social interactions of mice were recorded by USB webcam (LifeCam HD-6000, Microsoft) and PC-based video capture software (WinAVI Video Capture, ZJ Media Digital Technology) for 10 min.

C57BL/6J mice [1] = assay: Open-field reciprocal social interaction test; type: in vivo; conditions: same treatment
Procedure: as §1

[2] = cited from earlier work
wild-type mice [3] = assay: Contextual fear-conditioning test; type: in vivo; conditions: 0.0625 mg/kg, listed as CLZ
Description: (§2) The contextual fear-conditioning chamber was a square arena (25×25 cm) with clear PLEXIGLAS™ walls and a metal grid floor connected to a circuit board that delivered shocks to the metal grid (COULBOURN INSTRUMENTS™). An analog camera was attached on top of the chamber. The camera and the circuit board were connected to a personal computer, and its software (FREEZE FRAME™ 2.0, ACTIMETRICS™) controlled the circuit and recorded the data. The chamber was cleaned with 70% ethanol and wiped with paper towels before each session. In the habituation session, a test mouse was placed in the chamber and allowed to explore for 2 min^66-69. Immediately after habituation, the test mouse received a single mild foot shock (2 s, 0.5 mA). After staying in the chamber one more min, the mouse was removed from the chamber. For the 30-min short-term memory test, the mouse was returned to the context 30 min after the end of the training session. […] The movement of mice was also recorded by a USB webcam (LIFECAM™ HD-6000, MICROSOFT™) and PC-based video capture software (WINAVI™ Video Capture, ZJ MEDIA DIGITAL TECHNOLOGY™) for 2 min. The recorded video file was further analyzed by off-line video tracking software (ETHOVISION™ XT 7.0, NOLDUS TECHNOLOGY™). The freezing scores were calculated by dividing the test session into 1 min bouts and averaging together all 2 min for each animal. […]

Scn1a+/− mice [4] = assay: Contextual fear-conditioning test; type: in vivo; conditions: single i.p. 0.0625 mg/kg 30 min before training, listed as CLZ
Description: as §2

C57BL/6J mice [5] = assay: Three-chamber social interaction test; type: in vivo; conditions: for social interaction preference, Pre/CLZ/Post protocol: low dose (0.05 mg/kg), 0.05 mg/kg
Description: The mouse was allowed to freely explore each chamber.

wild-type mice [6] = assay: Open-field social interaction test; type: in vivo; conditions: 0.0625 mg/kg, listed as CLZ
Procedure: (§3) The open-field social interaction test was performed as described previously^64 with minor modifications. The test was performed in the open field arena that was used for the open field test. An age- and gender-matched C57Bl/6J mouse (M) caged in a rectangular wire mesh cage (6×6×10 cm), was used as a social cue. The stranger mouse had never been exposed to the test mouse. The test mouse was placed in the open field arena with an empty wire cage for 10 min for habituation. Following the 10 min session, a stranger mouse was placed in the same cage and the test mouse was allowed to explore the arena for another 10 min. The empty cage or caged stranger mouse was placed in the center of one quadrant of the arena, and immobilized on the floor of the arena with double-sided tape. […] The movement of the mouse was recorded with a USB webcam (LIFECAM™ HD-6000, MICROSOFT™) and PC-based video-capture software (WINAVI™ Video Capture, ZJ MEDIA DIGITAL TECHNOLOGY™). The recorded video file was further analyzed by off-line video tracking software (ETHOVISION™ XT 7.0). Time spent in the cage-containing quadrant, and time spent in the area 5 cm proximal to the cage were measured. Immobilization behavior was also measured by video tracking software. […] All data shown are means±s.e.m. and analyzed using two-way ANOVA with Bonferroni's post hoc analysis. […]

Scn1a+/− mice [7] = assay: Open-field social interaction test; type: in vivo; conditions: single i.p. 0.0625 mg/kg 30 min before test, listed as CLZ
Procedure: as §3

GABA-A α4 or α6 subtypes = conditions: cited from earlier work

SMILES | nose-to-nose interaction with stranger mouse (BTBR mice) | total (reciprocal) social interaction with stranger mouse (BTBR mice) | nose-to-nose interaction with stranger mouse (BTBR mice; listed as CLZ) | total (reciprocal) social interaction with stranger mouse (BTBR mice; listed as CLZ) | stereotyped circling behavior in open field with stranger mouse (BTBR mice; low dose (FIG. 8C)) | social interaction and stereotyped behavior (C57BL/6J mice [1]) | social interaction and stereotyped behavior (C57BL/6J mice [1]; listed as CLZ) | Dose in humans for anti-anxiety, anti-convulsive, or sedative effects: equivalent dose to 10 mg diazepam ([2]; Table 1, values marked *) | dose of equivalent efficacy to 10 mg of diazepam [2] | fear-associated contextual memory (wild-type mice [3]) | short-term (30 min) and long-term (24 h) fear-associated contextual memory (Scn1a+/− mice [4]) | time of interaction with stranger mouse vs. novel object (C57BL/6J mice [5]; any of the test doses (FIG. 39C)) | social interactions / close interaction (C57BL/6J mice [5]; clonazepam single injection, 0-0.1 mg/kg) | social interaction preference, Pre/CLZ/Post protocol (C57BL/6J mice [5]) | social interaction preference, Pre/CLZ/Post protocol (C57BL/6J mice [5]; listed as CLZ) | social interaction, open field social interaction test (wild-type mice [6]) | social interaction, open field social interaction test (Scn1a+/− mice [7]) | affinity for the α4 or α6 subtypes (GABA-A α4 or α6 subtypes) | social behavior, dose series (C57BL/6J mice [5]; L-838,417 / zolpidem (FIGS. 45I, 45J))
O=C1CN=C(c2ccccc2Cl)c2cc([N+](=O)[O-])ccc2N1 [Clonazepam] | significantly enhanced | significantly enhanced | reversibly increases | reversibly increases | reduces | unaffected | no significant effect | 0.5 mg | 0.5 mg | unaffected; also recorded: no significant change | complete reversal; also recorded: complete rescue | unaffected | not altered; also recorded: no effect | not changed; also recorded: None of these treatments had any significant effect | does not significantly alter | no effect; also recorded: absent; also recorded: not changed | completely rescued; also recorded: completely restored; also recorded: completely recovered | – | –
Cn1ncnc1COc1nn2c(-c3cc(F)ccc3F)nnc2cc1C(C)(C)C [L-838,417] | – | – | – | – | – | – | – | – | – | – | – | – | – | – | – | – | – | little affinity | not changed; also recorded: did not change
